What is called Ki is the dissociation constant of the complex between target and ligand, obtained from inhibition or displacement.

This is an account of results in article PMC2033796, “Mechanisms of acquired resistance to the quinazoline thymidylate synthase inhibitor ZD1694 (Tomudex) in one mouse and three human cell lines” (British Journal of Cancer, 1995).

Structures are written as SMILES.

The experiment has as its target T1, TS isolated from human ovarian CH1 cells (CH1 TS) (Homo sapiens, UniProt P04818).
T1 construct: gene TYMS; native enzyme partially purified from CH1 ovarian tumour cells (parental line), no tag
The experiment can be described thus: 3H release from [[…]-3H]dUMP, non-linear regression. The experiment is classed as biochemical.

T1 sequence (P04818 2-313): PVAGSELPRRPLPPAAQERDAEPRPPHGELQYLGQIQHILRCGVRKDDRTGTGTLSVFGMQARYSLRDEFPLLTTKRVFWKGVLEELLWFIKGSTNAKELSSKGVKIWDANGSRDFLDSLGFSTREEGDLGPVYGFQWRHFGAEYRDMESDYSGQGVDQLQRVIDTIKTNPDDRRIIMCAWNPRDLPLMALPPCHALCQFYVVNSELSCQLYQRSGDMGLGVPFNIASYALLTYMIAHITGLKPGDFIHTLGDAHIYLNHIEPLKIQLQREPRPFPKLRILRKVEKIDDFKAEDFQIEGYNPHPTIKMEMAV

In the case of `Cc1nc2ccc(CN(C)c3ccc(C(=O)N[C@@H](CCC(=O)N[C@@H](CCC(=O)N[C@@H](CCC(=O)O)C(=O)O)C(=O)O)C(=O)O)s3)cc2c(=O)[nH]1` [ZD1694 triglutamate], the Ki was determined as 1.6 ± 0.1 nM.
